{"source": "patent US11000555B2", "about": "“Method for preparing a limax compound and therapeutic use thereof” (GUANGXI JIUFU BIOTECHNOLOGY CO., LTD, priority 2017, dated 2021)", "key": {"Solubility": {"assay": "Solubility", "assay_type": "physicochemical"}, "mice [1]": {"tested_on": "mice", "assay": "Morphine-induced hyperexcitability test of mice", "assay_type": "in vivo, Kunming mice"}, "mice [2]": {"tested_on": "mice", "assay": "Acetic acid writhing test of mice", "assay_type": "in vivo, Kunming mice", "settings": "for Times of writhing: 0.6% acetic acid ip, in 20 min", "description": "Forty Kunming mice, male, were fasted for 12 h before the experiment but free to drink water. They were randomly divided into 4 groups: a blank control group, a low dose Compound group, a high dose Compound group, and a positive control group. […] The mice were administered (ig) at a low dose (0.4 g/kg) and a high dose (0.8 g/kg) of the compound, at a volume of 0.2 ml per 10 g body weight. The positive control group was administered (ip) methadone (20 mg/kg) and the blank control group was given (ig) the same volume of normal saline. Forty-five minutes after administration, each mouse was given (ip) 0.6% acetic acid, 0.2 ml for each. The mice were then observed for writhing reaction, with abdominal contraction and hind limb extension or hip elevation regarded as positive. Times of writhing in 20 min were recorded starting from 5 min after acetic acid injection. The analgesic effect was evaluated by taking completely inhibiting writhing reaction induced by acetic acid as an indicator."}, "mice [3]": {"tested_on": "mice", "assay": "Amphetamine-induced hyperexcitability test of mice", "assay_type": "in vivo, Kunming mice", "description": "Forty Kunming mice, half males and half females, were fasted for 12 h but free to drink water. The mice were randomly divided into four groups: a blank control group, a low does Compound group (0.4 g/kg, ig), a high dose Compound group (0.8 g/kg, ig) and a positive drug control group (Estazolam, 2 mg/kg). The mice were placed into the YLS-1A multifunctional recorder for spontaneous activities of small animals. After 5 minutes of adaptation, the number of the mice's spontaneous activities before administration were recorded, and the recording lasted for 10 minutes. The room was kept quiet during recording, at a room temperature of 20-24° C. After this, each group of mice was administered according to the above doses, and the blank control group was given the same volume of normal saline (ig). Thirty minutes after administration, each mouse was given an intraperitoneal injection of amphetamine (8 mg/kg). Fifteen minutes later, the mice were placed in the recorder to observe and record the number of activities within 10 min."}, "morphine-dependent rats": {"tested_on": "morphine-dependent rats", "assay": "Therapeutic effect on naloxone-induced withdrawal symptoms of morphine-dependent rats", "assay_type": "in vivo, Sprague-Dawley (SD) rats", "settings": "for Scores of induced withdrawal symptoms of rats: naloxone 5.0 mg/kg ip, 30 min", "description": "The administration continued for 3 days for each group of rats. Rats were free to drink and eat. Naloxone (5.0 mg/kg, ip) was given 45 min after administrations on d1 and d3 during the treatment to induce withdrawal symptoms, and withdrawal reaction in 30 min and body weights one hour before and after the inducement were observed.\nTimes of shaking like a wet dog, stereotyped acts, erecting and jumping in 30 minutes were directly scored; symptoms such as ptosis, irritability, tooth tremor, chewing, pilus erection, abnormal posture and rapid respiration were scored every 5 minutes; symptoms such as diarrhea, lacrimation, salivation and rhinorrhea were scored every 30 minutes. The sum of all scores was the total score of the withdrawal reaction. See Appendix Table 2."}, "mice [4]": {"tested_on": "mice", "assay": "Hot plate test of analgesic effect", "assay_type": "in vivo, Kunming mice", "settings": "for Pain threshold / Pain threshold before administration: hot plate 55° C.; for Pain threshold before administration: base line", "description": "Kunming mice, female, were selected. And a selection among them was conducted prior to the test. The hot plate was adjusted to 55° C.±0.5° C., the female mice were placed on the hot plate, and the duration (in seconds) required from placing the mice on the hot plate until the mice licked their feet as the normal pain threshold of the mice. All those who licked their feet within 5 s or after 30 s and jumped were abandoned. Forty qualified mice were selected and randomly divided into 4 groups: a blank control group, a low dose Compound group, a high dose Compound group, and a positive control group, 10 mice per group. The normal pain threshold of each mouse was measured repeatedly, and the average of two measurements was taken as the pre-administration pain threshold of the mouse. Each group was then administered (at doses and by delivery routes as above), 0.2 ml per 10 g body weight. The pain threshold of each group was measured 60 min and 120 min after administration. If a mouse remained unresponsive for more than 60 seconds on the hot plate, its pain threshold was calculated as 60 seconds."}, "mice [5]": {"tested_on": "mice", "assay": "Physical dependence test: induced withdrawal test for the mice", "settings": "mouse, in vivo", "description": "The daily doses were 25, 50, 75, 100, 125, 150 mg/kg according to the dose increasing principle, increased day by day, reached 150 mg/kg on day 6 which was adopted the same on day 7. The compound group was administered (ig) twice daily (8:00 am, 8:00 pm) at daily doses of 0.6, 1.2, 1.8, 2.4, 3.0, 3.6 g/kg. The dose increased every day from 0.6 g/kg to 3.6 g/kg on day 6 which was adopted the same on day 7. The negative control group was given (ig) the same volume of vegetable oil every day at the same time and for the same times as the compound group. On day 7, naloxone (8 mg/kg, ip) was given to each group of mice to induce withdrawal. The jump reaction within 30 min and weight change one hour before and after inducement were observed. Weight loss value=weight before inducement−weight after inducement."}, "mice [6]": {"tested_on": "mice", "assay": "Inducing the mice to sleep by a subthreshold dose of pentobarbital sodium", "assay_type": "in vivo, Kunming mice", "settings": "for Number of the mice showing disappearance of righting reflex: pentobarbital sodium 30 mg/kg ip, n = 20", "description": "Eighty Kunming mice, half males and half females, were fasted for 12 h but free to drink water. The mice were randomly divided into four groups: a blank control group, a low does Compound group (0.4 g/kg, ig), a high dose Compound group (0.8 g/kg, ig) and a positive drug control group (Estazolam, 2 mg/kg). each group of mice was administered according to the above doses (ig), and the blank control group was given the same volume of normal saline. Forty-five minutes later, each mouse was given (ip) 30 mg/kg pentobarbital sodium, and the number of mice falling asleep within 15 min was recorded by taking the absence of righting reflex more than 1 min as the indicator of falling asleep."}, "[7]": {"settings": "Before administration, high dose group"}, "[8]": {"settings": "Before administration, low dose group"}, "[9]": {"settings": "single administration 0.4, 0.8 g/kg, ig"}}, "note": "Marks after values point to notes of the source that are not given here."}
{"smiles": "CC1(C)O[C@H]2CC[C@@]3(C)[C@@H]([C@@H](O)[C@H](O)[C@@H]3[C@@](C)(O)CC[C@@H]3OC(C)(C)[C@H]4CC[C@]3(C)O4)[C@]2(C)CC[C@H]1O", "note": "[the compound, limaxol A]", "values": [{"measurement": "solubility", "setting": "Solubility; in acid and alkali", "value": "insoluble"}, {"measurement": "solubility", "setting": "Solubility; in ethanol, ethyl acetate, trichloromethane (hot)", "value": "soluble"}, {"measurement": "solubility", "setting": "Solubility; in methanol, acetone", "value": "easily soluble"}, {"measurement": "solubility", "setting": "Solubility; in trichloromethane (cold)", "value": "slightly soluble"}, {"measurement": "solubility", "setting": "Solubility; in water", "value": "insoluble"}, {"measurement": "Effect on excitability induced by morphine", "setting": "mice [1]; 0.4, 0.8 g/kg, ig", "value": "inhibit the increase of excitability induced by morphine and amphetamine"}, {"measurement": "Number of activities, morphine-induced excitability", "setting": "mice [1]; After administration, high dose 0.8 g/kg ig, morphine 10 mg/kg", "value": "112.7 ± 23.04**^Δ▴▴ Times per min"}, {"measurement": "Number of activities, morphine-induced excitability", "setting": "mice [1]; After administration, low dose 0.4 g/kg ig, morphine 10 mg/kg", "value": "102.0 ± 46.29**^Δ▴ Times per min"}, {"measurement": "Number of activities, morphine-induced excitability", "setting": "mice [1]; [7]", "value": "185.4 ± 36.93", "unit": "Times per min"}, {"measurement": "Number of activities, morphine-induced excitability", "setting": "mice [1]; [8]", "value": "191.5 ± 35.53", "unit": "Times per min"}, {"measurement": "Times of writhing", "setting": "mice [2]; high dose 0.8 g/kg ig", "value": "39.6 ± 13.21"}, {"measurement": "Times of writhing", "setting": "mice [2]; low dose 0.4 g/kg ig", "value": "37.10 ± 15.69"}, {"measurement": "Analgesic effect, acetic acid writhing test", "setting": "mice [2]; [9]", "value": "no obvious analgesic effect"}, {"measurement": "Effect on excitability induced by amphetamine", "setting": "mice [3]; 0.4, 0.8 g/kg, ig", "value": "inhibit the increase of excitability induced by morphine and amphetamine"}, {"measurement": "Number of activities, amphetamine-induced excitability", "setting": "mice [3]; After administration, high dose 0.8 g/kg ig, amphetamine 8 mg/kg", "value": "132.6 ± 26.26**^Δ▴▴ Times per min"}, {"measurement": "Number of activities, amphetamine-induced excitability", "setting": "mice [3]; After administration, low dose 0.4 g/kg ig, amphetamine 8 mg/kg", "value": "130.6 ± 32.11**^Δ▴ Times per min"}, {"measurement": "Number of activities, amphetamine-induced excitability", "setting": "mice [3]; [7]", "value": "197.4 ± 39.30", "unit": "Times per min"}, {"measurement": "Number of activities, amphetamine-induced excitability", "setting": "mice [3]; [8]", "value": "192.0 ± 45.06", "unit": "Times per min"}, {"measurement": "Body Weight Change (Body Weight before Inducement − Body Weight after Inducement)", "setting": "morphine-dependent rats; d 1, high dose 0.6 g/kg ig", "value": "14.7 ± 4.08", "unit": "g"}, {"measurement": "Scores of induced withdrawal symptoms of rats", "setting": "morphine-dependent rats; d 1, high dose 0.6 g/kg ig", "value": "53.8 ± 16.23"}, {"measurement": "Body Weight Change (Body Weight before Inducement − Body Weight after Inducement)", "setting": "morphine-dependent rats; d 1, low dose 0.3 g/kg ig", "value": "11.8 ± 3.25", "unit": "g"}, {"measurement": "Scores of induced withdrawal symptoms of rats", "setting": "morphine-dependent rats; d 1, low dose 0.3 g/kg ig", "value": "74.9 ± 42.03"}, {"measurement": "Body Weight Change (Body Weight before Inducement − Body Weight after Inducement)", "setting": "morphine-dependent rats; d 3, high dose 0.6 g/kg ig", "value": "1.9 ± 2.13", "unit": "g"}, {"measurement": "Scores of induced withdrawal symptoms of rats", "setting": "morphine-dependent rats; d 3, high dose 0.6 g/kg ig", "value": "22.1 ± 10.90"}, {"measurement": "Body Weight Change (Body Weight before Inducement − Body Weight after Inducement)", "setting": "morphine-dependent rats; d 3, low dose 0.3 g/kg ig", "value": "4.5 ± 2.59", "unit": "g"}, {"measurement": "Scores of induced withdrawal symptoms of rats", "setting": "morphine-dependent rats; d 3, low dose 0.3 g/kg ig", "value": "25.5 ± 12.26"}, {"measurement": "Effect on changes of the body weight of rats", "setting": "morphine-dependent rats; two doses (0.3, 0.6 g/kg) ig", "value": "no significant effect"}, {"measurement": "Effect on withdrawal symptoms of morphine-dependent rats", "setting": "morphine-dependent rats; two doses (0.3, 0.6 g/kg) ig", "value": "partially control the withdrawal symptoms"}, {"measurement": "Pain threshold", "setting": "mice [4]; 60 min, high dose 0.8 g/kg ig", "value": "27.0 ± 11.32", "unit": "s"}, {"measurement": "Pain threshold", "setting": "mice [4]; 60 min, low dose 0.4 g/kg ig", "value": "25.4 ± 10.10", "unit": "s"}, {"measurement": "Pain threshold", "setting": "mice [4]; 120 min, high dose 0.8 g/kg ig", "value": "25.9 ± 12.52", "unit": "s"}, {"measurement": "Pain threshold", "setting": "mice [4]; 120 min, low dose 0.4 g/kg ig", "value": "29.3 ± 13.41", "unit": "s"}, {"measurement": "Pain threshold before administration", "setting": "mice [4]; high dose group", "value": "24.3 ± 5.51", "unit": "s"}, {"measurement": "Pain threshold before administration", "setting": "mice [4]; low dose group", "value": "23.7 ± 4.95", "unit": "s"}, {"measurement": "Analgesic effect, hot plate test", "setting": "mice [4]; [9]", "value": "no obvious analgesic effect"}, {"measurement": "Behaviour of mice after administration", "setting": "mice [5]", "value": "quiet without tail erecting reaction or excitatory movement"}, {"measurement": "Withdrawal symptoms after administration of the compound, mice", "setting": "mice [5]", "value": "no obvious withdrawal symptoms"}, {"measurement": "Effect on number of mice that fell asleep, sub-threshold pentobarbital sodium", "setting": "mice [6]; 0.4, 0.8 g/kg, ig", "value": "increase the number of mice that fell asleep"}, {"measurement": "Number of the mice showing disappearance of righting reflex", "setting": "mice [6]; high dose 0.8 g/kg ig", "value": 8, "unit": "per group"}, {"measurement": "Number of the mice showing disappearance of righting reflex", "setting": "mice [6]; low dose 0.4 g/kg ig", "value": 11, "unit": "per group"}]}
